# Test results reported in ChEMBL document CHEMBL3351876 (Eur J Med Chem, 2014).
# Assays:
# Plasmodium falciparum = test: Antimalarial activity against chloroquine-resistant ring stage Plasmodium falciparum W2 assessed as parasitemia after 48 hrs by flow cytometry; assay type: functional, organism-based; conditions: W2, 48 h
# HeLa = test: Cytotoxicity against human HeLa cells after 24 hrs by trypan blue exclusion assay; assay type: cell-based
# Heme = test: Binding affinity to heme assessed as inhibition of beta-haemozoin formation by UV-vis spectra analysis
# [1] = Selectivity index, ratio of CC50 for human HeLa cells to IC50 for chloroquine-resistant ring stage Plasmodium falciparum W2; assay type: functional
SMILES,IC50 (Plasmodium falciparum) [µM],IC50 (HeLa) [µM],IC50 (Heme) [µM],Ratio IC50 [1]
O=C1/C(=C/C=C/c2ccccc2)NC(=S)N1C1CCCCC1,> 10,,,
O=C1/C(=C/C=C/c2ccccc2)NC(=S)N1c1ccc(F)cc1,> 10,,,
O=C1/C(=C/C=C/c2ccccc2)NC(=S)N1CCCNc1ccnc2cc(Cl)ccc12,0.0425,91,19.9,2139
O=C1/C(=C/C=C/c2ccccc2)NC(=S)N1CCCCCCNc1ccnc2cc(Cl)ccc12,0.387,,,
Cc1ccc(NC(=S)N[C@@H]2C(=O)N(c3ccc(C)cc3)[C@@H]2/C=C/c2ccccc2)cc1,> 10,,,
O=C1[C@H](NC(=S)Nc2ccnc3cc(Cl)ccc23)[C@H](/C=C/c2ccccc2)N1c1ccc(Cl)cc1,8.75,,,
Cc1ccc(N2C(=O)/C(=C/C=C/c3ccccc3)NC2=S)cc1,> 10,,,
Cc1ccc(N2C(=O)[C@@H](NC(=S)NC3CCCCC3)[C@H]2/C=C/c2ccccc2)cc1,> 10,,,
Cc1ccc(N2C(=O)[C@@H](NC(=S)Nc3ccc(F)cc3)[C@H]2/C=C/c2ccccc2)cc1,> 10,,,
O=C1[C@H](NC(=S)Nc2ccnc3cc(Cl)ccc23)[C@H](/C=C/c2ccccc2)N1c1ccc(F)cc1,> 10,,,
O=C1[C@H](NC(=S)Nc2ccnc3cc(Cl)ccc23)[C@H](/C=C/c2ccccc2)N1C1CCCCC1,6.13,,,
O=C1/C(=C/C=C/c2ccccc2)NC(=S)N1CCNc1ccnc2cc(Cl)ccc12,0.0398,72,13.9,1807
NCCN1C(=O)/C(=C/C=C/c2ccccc2)NC1=S,> 10,,,
CCCCN1C(=O)/C(=C/C=C/c2ccccc2)NC1=S,> 10,,,
Cc1ccc(N2C(=O)[C@H](NC(=S)Nc3ccnc4cc(Cl)ccc34)[C@@H]2/C=C/c2ccccc2)cc1,> 10,,,
CCCCNC(=S)N[C@@H]1C(=O)N(c2ccc(C)cc2)[C@@H]1/C=C/c1ccccc1,> 10,,,
O=C1[C@H](NC(=S)Nc2ccnc3cc(Cl)ccc23)[C@H](/C=C/c2ccccc2)N1c1ccc(Br)cc1,5.72,,,
O=C1/C(=C/C=C/c2ccccc2)NC(=S)N1CCCCNc1ccnc2cc(Cl)ccc12,0.0572,> 100,28.4,>1747
CC(C)CN1C(=O)/C(=C/C=C/c2ccccc2)NC1=S,> 10,,,
O=C1[C@H](NC(=S)Nc2ccnc3cc(Cl)ccc23)[C@H](/C=C/c2ccccc2)N1c1ccccc1,> 10,,,
Cc1ccc(N2C(=O)[C@@H](NC(=S)NCC(C)C)[C@H]2/C=C/c2ccccc2)cc1,> 10,,,
